From patent US8815950B2, “Pharmaceutical compositions and method of using levodopa and carbidopa” (Janssen Biotech, Inc., priority 2003, dated 2014)
In brackets after ≈: the same amount, converted by molar mass. Where two headings read alike, the source gives them in different places.

Key:
Type in all cases: physicochemical
[1] = Stability of levodopa and carbidopa solutions, HPLC potency test
Protocol: A formulation of: […] This powder mixture was dissolved in water at a concentration of 5.5 mg/ml of levodopa. This solution was filter through a 0.22 micrometer filter (with PVDF membrane) and then stored at temperatures of 4 degrees C., 25 degrees C. and 40 degrees C. […] This powder mixture was dissolved in water at concentration of 1.0 mg/ml of levodopa. This solution was filtered through a 0.22 micrometer filter (with PVDF membrane) and then stored at temperatures of 4 degrees C., 25 degrees C. and 40 degrees C. The sample solutions were submitted for HPLC potency test at each time point. The stability was monitored in percentage change compared to the initial potency.

[2] = Solubility of levodopa in citrate buffer at varying pH and buffer strength
Protocol: Solutions were made using Citric acid and tribasic Sodium Citrate dihydrate Initially a 1.0 M citric acid solution was made by weighing out 19.2 g Citric acid (FW 192.1) into a 100 mL volumetric flask and diluting with HPLC grade water. This was repeated with the Sodium Citrate (FW 294.1), by weighting out 29.4 g of sodium citrate in into a 100 mL volumetric flask and diluting to 100 mL with water. A series of 8 of 20 mL scintillation vials were then labeled and prepared as follows:
These pH adjustments were made with the sodium citrate (also 1.0 M) to keep a consistent molarity with the citrate. From these mother vials, 2 subsequent sets of solution were made for the molar concentrations 0.45 and 0.15 M. 0.45 M is for a 3:1 buffer and 0.15 M is for a 1:1 buffer. These solutions were also pH adjusted with molar equivalent solution to keep the pH value consistent throughout each dilution and after adding the levodopa.

[3] = Levodopa solubility in 3.5 mg/ml ascorbic acid solution; conditions: aqueous buffer, thermodynamic from solid, stirring 24 hour at RT, read-out: concentration of levodopa in the filtration (maximum solubility)
Protocol: Levedopa solubility in ascorbic acid solution an ascorbic acid concentration of 3.5 mg/ml was tested. A sample of 3.5 mg/ml ascorbic acid was made by adding 70.0 mg of ascorbic acid into 20 ml of water. Then, 80.0 mg of levodopa powder was dissolved into the 3.5 mg/ml ascorbic sample by stirring for 24 hour at RT. The projected levodopa concentration was 4 mg/ml. The sample was filtered through a 0.22μ PVDF filter to remove the insoluble levodopa. The filtration was assayed by HPLC at 10× dilution with water. The HPLC data indicated the concentration of levodopa in the filtration was 2.0 mg/ml.

[4] = Levodopa/Ascorbic/Carbidopa/at 1/3/0.2 at 4 C., 1 Day
[5] = Levodopa/Ascorbic/Carbidopa/at 1/3/0.2 at 4 C., 2 Day
[6] = Levodopa/Ascorbic/Carbidopa/at 1/3/0.2 at 4 C., 7 Day
[7] = Levodopa/Ascorbic/Carbidopa/at 1/3/0.2 at 4 C., Initial
[8] = Levodopa/Ascorbic/Carbidopa/at 1/3/0.2 at 25 C., 1 Day
[9] = Levodopa/Ascorbic/Carbidopa/at 1/3/0.2 at 25 C., 2 Day
[10] = Levodopa/Ascorbic/Carbidopa/at 1/3/0.2 at 25 C., 7 Day
[11] = Levodopa/Ascorbic/Carbidopa/at 1/3/0.2 at 25 C., Initial
[12] = Levodopa/Ascorbic/Carbidopa/at 1/3/0.2 at 40 C., 1 Day
[13] = Levodopa/Ascorbic/Carbidopa/at 1/3/0.2 at 40 C., 2 Day
[14] = Levodopa/Ascorbic/Carbidopa/at 1/3/0.2 at 40 C., 7 Day
[15] = Levodopa/Ascorbic/Carbidopa/at 1/3/0.2 at 40 C., Initial
[16] = Levodopa/Citric/Carbidopa/Sucrose at 1/3/0.2/1 at 4 C., 1 Day
[17] = Levodopa/Citric/Carbidopa/Sucrose at 1/3/0.2/1 at 4 C., 2 Day
[18] = Levodopa/Citric/Carbidopa/Sucrose at 1/3/0.2/1 at 4 C., 3 Day
[19] = Levodopa/Citric/Carbidopa/Sucrose at 1/3/0.2/1 at 4 C., 7 Day
[20] = Levodopa/Citric/Carbidopa/Sucrose at 1/3/0.2/1 at 4 C., Initial
[21] = Levodopa/Citric/Carbidopa/Sucrose at 1/3/0.2/1 at 25 C., 1 Day
[22] = Levodopa/Citric/Carbidopa/Sucrose at 1/3/0.2/1 at 25 C., 2 Day
[23] = Levodopa/Citric/Carbidopa/Sucrose at 1/3/0.2/1 at 25 C., 3 Day
[24] = Levodopa/Citric/Carbidopa/Sucrose at 1/3/0.2/1 at 25 C., 7 Day
[25] = Levodopa/Citric/Carbidopa/Sucrose at 1/3/0.2/1 at 25 C., Initial
[26] = Levodopa/Citric/Carbidopa/Sucrose at 1/3/0.2/1 at 40 C., 1 Day
[27] = Levodopa/Citric/Carbidopa/Sucrose at 1/3/0.2/1 at 40 C., 2 Day
[28] = Levodopa/Citric/Carbidopa/Sucrose at 1/3/0.2/1 at 40 C., 3 Day
[29] = Levodopa/Citric/Carbidopa/Sucrose at 1/3/0.2/1 at 40 C., 7 Day
[30] = Levodopa/Citric/Carbidopa/Sucrose at 1/3/0.2/1 at 40 C., Initial

SMILES: C[C@@](Cc1ccc(O)c(O)c1)(NN)C(=O)O [Carbidopa]
- HPLC potency, percentage compared to the initial potency [1, 4]: 101%
- HPLC potency, percentage compared to the initial potency [1, 5]: 101%
- HPLC potency, percentage compared to the initial potency [1, 6]: 101%
- HPLC potency, percentage compared to the initial potency [1, 7]: 100%
- HPLC potency, percentage compared to the initial potency [1, 8]: 99%
- HPLC potency, percentage compared to the initial potency [1, 9]: 97%
- HPLC potency, percentage compared to the initial potency [1, 10]: 87%
- HPLC potency, percentage compared to the initial potency [1, 11]: 100%
- HPLC potency, percentage compared to the initial potency [1, 12]: 94%
- HPLC potency, percentage compared to the initial potency [1, 13]: 88%
- HPLC potency, percentage compared to the initial potency [1, 14]: 88%
- HPLC potency, percentage compared to the initial potency [1, 15]: 100%
- HPLC potency, percentage compared to the initial potency [1, 16]: 100%
- HPLC potency, percentage compared to the initial potency [1, 17]: 100%
- HPLC potency, percentage compared to the initial potency [1, 18]: 101%
- HPLC potency, percentage compared to the initial potency [1, 19]: 100%
- HPLC potency, percentage compared to the initial potency [1, 20]: 100%
- HPLC potency, percentage compared to the initial potency [1, 21]: 98%
- HPLC potency, percentage compared to the initial potency [1, 22]: 96%
- HPLC potency, percentage compared to the initial potency [1, 23]: 96%
- HPLC potency, percentage compared to the initial potency [1, 24]: 91%
- HPLC potency, percentage compared to the initial potency [1, 25]: 100%
- HPLC potency, percentage compared to the initial potency [1, 26]: 91%
- HPLC potency, percentage compared to the initial potency [1, 27]: 84%
- HPLC potency, percentage compared to the initial potency [1, 28]: 81%
- HPLC potency, percentage compared to the initial potency [1, 29]: 75%
- HPLC potency, percentage compared to the initial potency [1, 30]: 100%

SMILES: N[C@@H](Cc1ccc(O)c(O)c1)C(=O)O [Levodopa]
- solubility ([2]; pH 1.5, aqueous buffer, Citrate buffer 0.15M pH1.5, read-out: Conc (levodopa solubility)): 7200 µg/mL (≈ 36.5 mM)
- solubility ([2]; pH 1.5, aqueous buffer, Citrate buffer 0.45M pH1.5, read-out: Conc (levodopa solubility)): 11400 µg/mL (≈ 57.8 mM)
- solubility ([2]; pH 1.5, aqueous buffer, Citrate buffer 1.0M pH 1.5, read-out: Conc (levodopa solubility)): 17900 µg/mL (≈ 90.9 mM)
- solubility ([2]; pH 2.5, aqueous buffer, Citrate buffer 0.15M pH2.5, read-out: Conc (levodopa solubility)): 4870 µg/mL (≈ 24.7 mM)
- solubility ([2]; pH 2.5, aqueous buffer, Citrate buffer 0.45M pH2.5, read-out: Conc (levodopa solubility)): 5820 µg/mL (≈ 29.5 mM)
- solubility ([2]; pH 2.5, aqueous buffer, Citrate buffer 1.0M pH 2.5, read-out: Conc (levodopa solubility)): 7430 µg/mL (≈ 37.7 mM)
- solubility ([2]; pH 3, aqueous buffer, Citrate buffer 0.15M pH3.0, read-out: Conc (levodopa solubility)): 4210 µg/mL (≈ 21.3 mM)
- solubility ([2]; pH 3, aqueous buffer, Citrate buffer 0.45M pH3.0, read-out: Conc (levodopa solubility)): 4850 µg/mL (≈ 24.6 mM)
- solubility ([2]; pH 3, aqueous buffer, Citrate buffer 1.0M pH 3.0, read-out: Conc (levodopa solubility)): 5930 µg/mL (≈ 30.1 mM)
- solubility ([2]; pH 3.5, aqueous buffer, Citrate buffer 0.15M pH3.5, read-out: Conc (levodopa solubility)): 3900 µg/mL (≈ 19.8 mM)
- solubility ([2]; pH 3.5, aqueous buffer, Citrate buffer 0.45M pH3.5, read-out: Conc (levodopa solubility)): 4510 µg/mL (≈ 22.9 mM)
- solubility ([2]; pH 3.5, aqueous buffer, Citrate buffer 1.0M pH 3.5, read-out: Conc (levodopa solubility)): 5230 µg/mL (≈ 26.5 mM)
- solubility ([2]; pH 4, aqueous buffer, Citrate buffer 0.15M pH4.0, read-out: Conc (levodopa solubility)): 3790 µg/mL (≈ 19.2 mM)
- solubility ([2]; pH 4, aqueous buffer, Citrate buffer 0.45M pH4.0, read-out: Conc (levodopa solubility)): 4250 µg/mL (≈ 21.6 mM)
- solubility ([2]; pH 4, aqueous buffer, Citrate buffer 1.0M pH 4.0, read-out: Conc (levodopa solubility)): 4650 µg/mL (≈ 23.6 mM)
- solubility ([2]; pH 4.5, aqueous buffer, Citrate buffer 0.15M pH4.5, read-out: Conc (levodopa solubility)): 3880 µg/mL (≈ 19.7 mM)
- solubility ([2]; pH 4.5, aqueous buffer, Citrate buffer 0.45M pH4.5, read-out: Conc (levodopa solubility)): 4250 µg/mL (≈ 21.6 mM)
- solubility ([2]; pH 4.5, aqueous buffer, Citrate buffer 1.0M pH 4.5, read-out: Conc (levodopa solubility)): 4440 µg/mL (≈ 22.5 mM)
- solubility ([2]; pH 5, aqueous buffer, Citrate buffer 0.15M pH5.0, read-out: Conc (levodopa solubility)): 3880 µg/mL (≈ 19.7 mM)
- solubility ([2]; pH 5, aqueous buffer, Citrate buffer 0.45M pH5.0, read-out: Conc (levodopa solubility)): 4150 µg/mL (≈ 21 mM)
- solubility ([2]; pH 5, aqueous buffer, Citrate buffer 1.0M pH 5.0, read-out: Conc (levodopa solubility)): 4170 µg/mL (≈ 21.1 mM)
- solubility ([2]; pH 6, aqueous buffer, Citrate buffer 0.15M pH6.0, read-out: Conc (levodopa solubility)): 3950 µg/mL (≈ 20 mM)
- solubility ([2]; pH 6, aqueous buffer, Citrate buffer 0.45M pH6.0, read-out: Conc (levodopa solubility)): 4160 µg/mL (≈ 21.1 mM)
- solubility ([2]; pH 6, aqueous buffer, Citrate buffer 1.0M pH 6.0, read-out: Conc (levodopa solubility)): 3870 µg/mL (≈ 19.6 mM)
- HPLC potency, percentage compared to the initial potency [1, 4]: 100%
- HPLC potency, percentage compared to the initial potency [1, 5]: 100%
- HPLC potency, percentage compared to the initial potency [1, 6]: 102%
- HPLC potency, percentage compared to the initial potency [1, 7]: 100%
- HPLC potency, percentage compared to the initial potency [1, 8]: 100%
- HPLC potency, percentage compared to the initial potency [1, 9]: 100%
- HPLC potency, percentage compared to the initial potency [1, 10]: 102%
- HPLC potency, percentage compared to the initial potency [1, 11]: 100%
- HPLC potency, percentage compared to the initial potency [1, 12]: 100%
- HPLC potency, percentage compared to the initial potency [1, 13]: 101%
- HPLC potency, percentage compared to the initial potency [1, 14]: 104%
- HPLC potency, percentage compared to the initial potency [1, 15]: 100%
- HPLC potency, percentage compared to the initial potency [1, 16]: 100%
- HPLC potency, percentage compared to the initial potency [1, 17]: 100%
- HPLC potency, percentage compared to the initial potency [1, 18]: 100%
- HPLC potency, percentage compared to the initial potency [1, 19]: 100%
- HPLC potency, percentage compared to the initial potency [1, 20]: 100%
- HPLC potency, percentage compared to the initial potency [1, 21]: 100%
- HPLC potency, percentage compared to the initial potency [1, 22]: 100%
- HPLC potency, percentage compared to the initial potency [1, 23]: 100%
- HPLC potency, percentage compared to the initial potency [1, 24]: 100%
- HPLC potency, percentage compared to the initial potency [1, 25]: 100%
- HPLC potency, percentage compared to the initial potency [1, 26]: 100%
- HPLC potency, percentage compared to the initial potency [1, 27]: 100%
- HPLC potency, percentage compared to the initial potency [1, 28]: 100%
- HPLC potency, percentage compared to the initial potency [1, 29]: 100%
- HPLC potency, percentage compared to the initial potency [1, 30]: 100%
- solubility at 24 h [3]: 2000 µg/mL (≈ 10.1 mM)
